Entries after “also recorded” stand apart in the source; their conditions may differ.
Columns and labels:
[1] = tested on: lymphoid cells from rHA1 immunized DR1 transgenic mice; type: cell-based, mouse
[2] = biological target: HA259-274 specific CD4+ T cells from DR1 transgenic mice immunized with H5N1-rHA1 protein/CFA (T cel)
[3] = biological target: CD4+ CD44+ cells from CFA only immunized DR1 transgenic mice (T cell receptors on cells)
[4] = biological target: HA259-274 specific CD4+ T cells from DR1 transgenic mice immunized with H5N1-rHA1 protein/CFA (T cel); remark: listed apart in the source
[5] = tested on: lymphoid cells from H5N1-rHA1 immunized DR1 transgenic mice; type: cell-based, mouse
[6] = tested on: lymphoid cells from H5N1-rHA1 immunized DR1 transgenic mice; type: cell-based, mouse; remark: listed apart in the source
[7] = tested on: lymphoid cells from H5N1-rHA1 immunized DR1 transgenic mice; type: cell-based, mouse; remark: listed apart in the source
[8] = tested on: lymphoid cells from type II collagen immunized DR1 transgenic mice; type: cell-based, mouse

Row | Substance | proliferative response ([3H]thymidine incorporation) [1] | IFN-γ production in culture supernatant [5] | proliferation response ([3H]thymidine incorporation) [6] | other results
1 | PKYVKQNTLKLAT [HA306-318] | Strong dose dependent responses | – | – | –
2 | INSSLPYQNIHPVTIGECPKY [HA298-317] | significantly lower; also recorded: no response | – | – | –
3 | HA259-274/DR1 tetramers (from UniProt P01903 26-216) (peptide-MHC) | – | – | – | fold increased staining against control CLIP/DR1 tetramers [2]: 30 fold; tetramer positive population [2]: 3%; tetramer positive cells [3]: 0.01%; tetramer positive population (% of the CD4+ CD44+ cells) [4]: 0.1
4 | KMRMATPLLMQALPM [CLIP89-105] | – | not | not | –
5 | SNGNFIAPEYAYKIVK [HA259-274] | – | positive cytokine production | Strong dose dependent proliferation responses | IL-2 production in culture supernatant [7]: positive cytokine production
6 | AGFKGEQGPKGEPGP [CII280-294] | – | – | – | proliferative response ([3H]thymidine incorporation) [8]: Strong dose dependent responses

Source: US20120076811A1 (priority 2009, published 2012)
